Reference: the supplement of paper PMC10307832

Tests used:
Test in all cases: relative viability (nuclei count vs DMSO), 5 days (fraction); higher = more cells survive
[1] = compound: O=C(O)c1ccc2c(c1)nc(Nc1cccc(Cl)c1)c1ccncc12 [Silmitasertib] + CC(=O)Nc1cccc(-n2c(=O)n(C3CC3)c(=O)c3c(Nc4ccc(I)cc4F)n(C)c(=O)c(C)c32)c1 [Trametinib] (partner 0.02 µM)
Method in brief: (§1)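 Lung cancer cell lines were pin-tool dosed in 1536-well plates on the day after seeding, with either a lone drug or a fixed anchor-drug dose plus five library-drug doses (not always all listed) in √10 steps. Nuclei were counted on 4× images after 5 days. Relative viability is the ratio of treated-well to vehicle-well nuclei counts, with each value a median of duplicate plates.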

[2] = compound: O=C(O)c1ccc2c(c1)nc(Nc1cccc(Cl)c1)c1ccncc12 [Silmitasertib] + CS(=O)(=O)N1CCN(Cc2cc3nc(-c4cccc5[nH]ncc45)nc(N4CCOCC4)c3s2)CC1 [Pictilisib] (partner 1 µM)
Method in brief: as §1

[3] = compound: O=C(O)c1ccc2c(c1)nc(Nc1cccc(Cl)c1)c1ccncc12 [Silmitasertib] + C[C@@H](Oc1cc(-c2cnn(C3CCNCC3)c2)cnc1N)c1c(Cl)ccc(F)c1Cl [Crizotinib] (partner 1 µM)
Method in brief: as §1

Silmitasertib + AZD7762 = compound: O=C(O)c1ccc2c(c1)nc(Nc1cccc(Cl)c1)c1ccncc12 [Silmitasertib] + NC(=O)Nc1cc(-c2cccc(F)c2)sc1C(=O)N[C@H]1CCCNC1 [AZD7762] (partner 0.2 µM)
Method in brief: as §1

Silmitasertib + Olaparib = compound: O=C(O)c1ccc2c(c1)nc(Nc1cccc(Cl)c1)c1ccncc12 [Silmitasertib] + O=C(c1cc(Cc2n[nH]c(=O)c3ccccc23)ccc1F)N1CCN(C(=O)C2CC2)CC1 [Olaparib] (partner 8 µM)
Method in brief: as §1

Cell Line | relative viability ([1]; first compound 0.04 µM) | relative viability ([1]; first compound 0.4 µM) | relative viability ([1]; first compound 1.265 µM) | relative viability ([1]; first compound 4 µM) | relative viability ([2]; first compound 0.04 µM) | relative viability ([2]; first compound 0.4 µM) | relative viability ([2]; first compound 1.265 µM) | relative viability ([2]; first compound 4 µM) | relative viability ([3]; first compound 0.04 µM) | relative viability ([3]; first compound 0.4 µM) | relative viability ([3]; first compound 1.265 µM) | relative viability ([3]; first compound 4 µM) | relative viability (Silmitasertib + AZD7762; first compound 0.04 µM) | relative viability (Silmitasertib + AZD7762; first compound 0.4 µM) | relative viability (Silmitasertib + AZD7762; first compound 1.265 µM) | relative viability (Silmitasertib + AZD7762; first compound 4 µM) | relative viability (Silmitasertib + Olaparib; first compound 0.04 µM) | relative viability (Silmitasertib + Olaparib; first compound 0.4 µM) | relative viability (Silmitasertib + Olaparib; first compound 1.265 µM) | relative viability (Silmitasertib + Olaparib; first compound 4 µM)
NCI-H1993 | 0.584 | 0.609 | 0.578 | 0.586 | 0.818 | 0.818 | 0.854 | 0.916 | 0.956 | 0.899 | 0.803 | 0.644 | 0.925 | 0.653 | 0.721 | 0.663 | 1.24 | 0.804 | 0.96 | 0.831
NCI-H460 | 0.201 | 0.196 | 0.131 | 0.0739 | 0.424 | 0.412 | 0.314 | 0.3 | 0.91 | 0.866 | 0.755 | 0.865 | 0.608 | 0.671 | 0.759 | 0.384 | 0.387 | 0.269 | 0.553 | 0.575
NCI-H1975 | 0.613 |  | 0.297 | 0.315 | 0.313 | 0.25 | 0.207 | 0.208 | 0.954 | 0.795 | 0.929 | 0.816 | 0.775 |  | 0.647 | 0.795 | 0.818 |  | 0.658 | 0.832
RERF-LC-KJ | 0.926 | 0.722 | 0.661 | 0.541 | 0.629 | 0.494 | 0.366 | 0.323 | 0.77 | 0.817 | 0.736 | 0.711 | 1.07 | 0.785 | 0.763 | 0.344 | 0.909 | 0.829 | 0.785 | 0.74
NCI-H322M | 0.61 | 0.5 | 0.47 | 0.553 | 0.503 | 0.503 | 0.381 | 0.365 | 0.878 | 0.662 | 0.511 | 0.281 | 0.554 | 0.608 | 0.562 | 0.405 | 0.7 | 0.608 | 0.456 | 0.39
NCI-H1651 | 0.881 | 0.714 | 0.84 | 0.848 | 0.615 | 0.657 | 0.669 | 0.543 | 0.88 | 0.727 | 0.834 | 0.924 | 0.505 | 0.449 | 0.481 | 0.675 | 0.171 | 0.139 | 0.184 | 0.186
HARA | 0.97 | 0.594 | 0.419 | 0.487 | 0.603 | 0.41 | 0.334 | 0.257 | 1.1 | 0.757 | 0.621 | 0.88 | 0.411 | 0.289 | 0.589 | 0.443 | 1.25 | 0.595 | 0.634 | 0.276
H3255 | 0.651 | 0.604 | 0.527 | 0.565 | 0.537 | 0.448 | 0.414 | 0.345 | 0.888 | 0.701 | 0.883 | 0.864 | 1.09 | 0.808 | 0.807 | 0.77 | 0.579 | 0.492 | 0.549 | 0.53
